Results: ChEMBL document CHEMBL1201862, “PubChem BioAssay data set” (2004)
Active and inactive are the calls of the source.

Assays:
[1] = molecular target: T1, Disintegrin and metalloproteinase domain-containing protein 17 (Homo sapiens, UniProt P78536); assay: exosite inhibitors of ADAM17, dose response, biochemical (AID 743260)
[2] = molecular target: T2, Calpain-2 catalytic subunit (Sus scrofa, UniProt P43367); assay: m-calpain protease blockers, concentration series – biochemical, fluorogenic peptide substrate, dose response (AID 1420); assay type: functional
T2 sequence (P43367 whole entry): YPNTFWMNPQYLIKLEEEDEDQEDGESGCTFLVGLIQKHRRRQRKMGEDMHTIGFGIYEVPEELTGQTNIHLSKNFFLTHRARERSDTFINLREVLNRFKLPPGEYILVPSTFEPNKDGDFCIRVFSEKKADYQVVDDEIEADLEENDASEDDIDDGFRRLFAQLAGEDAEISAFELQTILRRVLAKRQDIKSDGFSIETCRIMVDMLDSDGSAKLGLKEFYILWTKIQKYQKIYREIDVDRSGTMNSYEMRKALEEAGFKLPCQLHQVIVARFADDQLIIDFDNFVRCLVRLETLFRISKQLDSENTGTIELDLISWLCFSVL

[3] = inhibition of ADAM10 peptide cleavage – biochemical, FRET peptide substrate, recombinant human ADAM10, selectivity assay for ADAM17 exosite inhibitor project, dose response (AID 743259);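 note: ADAM10 enzyme cleaving a FRET peptide substrate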
[4] = molecular target: E3 ubiquitin-protein ligase UHRF1 (Homo sapiens, UniProt Q96T88); assay: Counterscreen for inhibitors of 5-meCpG-binding domain protein 2 (MBD2): TRFRET-based biochemical high throughput dose response assay to identify inhibitors of binding of ubiquitin-like with PHD and ring finger domains 1 (UHRF1) to methylated oligonucleotide.
Caspase-6 = Caspase-6 (Homo sapiens, UniProt P55212); assay: inhibition of CASP6 peptide cleavage – biochemical, VEID-R110 fluorescence, cherry-pick, dose response (AID 720632)
[5] = Late stage counterscreen for inhibitors of Trypanosoma brucei methionyl tRNA synthetase (MetRS): Luminescence-based cell-based high throughput dose response assay to identify compounds that are cytotoxic to Jurkat human T lymphocyte cells.; assay type: functional
[6] = molecular target: T3, Methionyl-tRNA synthetase, putative (Trypanosoma brucei brucei, UniProt Q38C91); assay type: functional, Trypanosoma brucei brucei strain 927/4 GUTat10.1
T3 sequence (Q38C91 whole entry): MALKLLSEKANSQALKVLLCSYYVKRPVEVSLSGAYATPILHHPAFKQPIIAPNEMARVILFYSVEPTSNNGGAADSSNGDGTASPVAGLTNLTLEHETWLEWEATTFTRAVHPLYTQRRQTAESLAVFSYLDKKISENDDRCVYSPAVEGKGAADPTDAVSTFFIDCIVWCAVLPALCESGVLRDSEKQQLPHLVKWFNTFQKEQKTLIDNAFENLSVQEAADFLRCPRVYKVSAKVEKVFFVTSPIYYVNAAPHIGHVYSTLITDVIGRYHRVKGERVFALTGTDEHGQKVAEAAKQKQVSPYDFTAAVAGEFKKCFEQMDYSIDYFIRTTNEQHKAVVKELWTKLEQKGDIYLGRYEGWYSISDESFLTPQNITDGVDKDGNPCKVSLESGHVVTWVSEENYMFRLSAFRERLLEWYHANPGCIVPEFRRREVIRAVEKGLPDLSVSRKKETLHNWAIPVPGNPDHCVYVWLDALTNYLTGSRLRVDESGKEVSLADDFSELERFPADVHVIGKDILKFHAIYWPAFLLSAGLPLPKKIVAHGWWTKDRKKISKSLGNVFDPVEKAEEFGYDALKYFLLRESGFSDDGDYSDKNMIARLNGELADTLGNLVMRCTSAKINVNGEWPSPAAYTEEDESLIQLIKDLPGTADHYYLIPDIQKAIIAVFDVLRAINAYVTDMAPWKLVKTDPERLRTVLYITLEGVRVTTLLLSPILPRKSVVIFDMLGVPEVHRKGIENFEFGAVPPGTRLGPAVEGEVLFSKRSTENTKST

[7] = molecular target: T3, Methionyl-tRNA synthetase, putative; assay type: functional, Trypanosoma brucei brucei strain 927/4 GUTat10.1; remark: listed apart in the source
[8] = Counterscreen for inhibitors of Trypanosoma brucei methionyl tRNA synthetase (MetRS): Luminescence-based cell-based high throughput dose response assay to identify compounds that are cytotoxic to Jurkat human T lymphocyte cells.; assay type: functional
[9] = molecular target: NAD-dependent protein deacylase sirtuin-5, mitochondrial (Homo sapiens, UniProt Q9NXA8); assay: sirtuin-5 deacylation blockers, concentration series – biochemical, fluorescence imaging, cherry-pick, set 5, dose response (AID 720591);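 note: desuccinylation of succinyl peptide AMC substrate read as fluorescence after trypsin release; potency of inhibitors that lower fluorescence and may act on trypsin instead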
[10] = general mammalian cell viability loss – inhibitor set, cherry-pick, set 2, cytotoxicity control for miR-122 modulator project, dose response (AID 720697); assay type: functional, cell-based
[11] = activation of miR-122 Renilla sensor silencing – cell-based, Huh7 psiCHECK-miR122, Renilla luciferase, cherry-picked, dose response (AID 651956); assay type: functional;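 note: huh7 hepatoma cells stably carrying a psiCHECK-2 miR-122 sensor plasmid; renilla luciferase signal reporting endogenous miR-122 activity after 48 h compound exposure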
[12] = general mammalian cell viability loss – activator set, cherry-pick, cytotoxicity control for miR-122 modulator project, dose response (AID 720690); assay type: functional, cell-based;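 note: HEK293T human cells scored for general mammalian cytotoxicity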
[13] = molecular target: T1, Disintegrin and metalloproteinase domain-containing protein 17; assay: inhibition of ADAM17 substrate cleavage – biochemical, quenched FRET substrate, counter-screen for ADAM10 exosite inhibitor project, dose response (AID 743253)
[14] = potency of ADAM10 substrate cleavage blockers – biochemical, QFRET, dose response (AID 743254);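 note: ADAM10 enzyme with the DM2 quenched FRET peptide as substrate; EDANS fluorescence gain as the protease cuts the substrate; inhibitor potency against ADAM10 proteolytic activity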
fMet-Leu-Phe receptor = fMet-Leu-Phe receptor (Homo sapiens, UniProt P21462); assay: formyl peptide receptor binders – dose response (AID 519); assay type: functional
[15] = Late stage assay provider counterscreen for TLR9 inhibitors: absorbance-based cell-based MTT cytotoxicity assay.; assay type: functional
Beta Lactamase = Beta Lactamase (Pseudomonas aeruginosa, UniProt Q932Y6); assay: BLA reporter interference, concentration series – BLA reporter cells, FRET fluorescence, artefact control for TLR9-MyD88 binding inhibitor project, dose response (AID 588341); assay type: cell-based;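 note: cell based assay in CHO-K1 cells stably expressing beta-lactamase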
[16] = reduced cellular PGC1a acetyl-lysine signal – cell-based, cherry-picked samples, dose response (AID 720514); assay type: functional;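 note: potency may reflect raised or lowered acetylation signal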
[17] = molecular target: T4, Rac GTPase-activating protein 1 (Homo sapiens, UniProt Q9H0H5); assay: blockers of MgcRacGAP-driven Rac1 GTP hydrolysis – biochemical, ADP Hunter fluorescence, primary and confirmatory, confirmation (AID 624330); assay type: functional
T4 sequence (Q9H0H5 whole entry): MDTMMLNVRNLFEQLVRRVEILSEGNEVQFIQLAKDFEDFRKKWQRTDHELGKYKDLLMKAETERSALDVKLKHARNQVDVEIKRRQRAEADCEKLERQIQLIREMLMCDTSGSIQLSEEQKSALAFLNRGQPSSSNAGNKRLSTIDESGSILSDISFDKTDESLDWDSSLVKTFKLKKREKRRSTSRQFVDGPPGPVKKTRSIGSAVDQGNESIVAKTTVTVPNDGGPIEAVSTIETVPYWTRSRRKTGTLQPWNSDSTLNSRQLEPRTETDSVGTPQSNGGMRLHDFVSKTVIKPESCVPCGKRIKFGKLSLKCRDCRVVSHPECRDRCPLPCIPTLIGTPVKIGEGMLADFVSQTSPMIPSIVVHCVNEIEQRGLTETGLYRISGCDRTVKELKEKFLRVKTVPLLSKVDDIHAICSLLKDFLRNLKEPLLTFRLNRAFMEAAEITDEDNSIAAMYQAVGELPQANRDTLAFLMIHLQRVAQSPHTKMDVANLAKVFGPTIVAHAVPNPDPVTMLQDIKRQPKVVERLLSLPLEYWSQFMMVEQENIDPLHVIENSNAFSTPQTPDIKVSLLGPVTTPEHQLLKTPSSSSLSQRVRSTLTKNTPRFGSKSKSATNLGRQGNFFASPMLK

[18] = viability loss in HeLa cells – cytotoxicity control for MgcRacGAP inhibitor project, dose response (AID 624300); assay type: functional
CHO = CHO cell viability loss, potency – luminescence, cytotoxicity control for TLR9-MyD88 binding inhibitor project, dose response (AID 588339); assay type: functional, cell-based, hamster; conditions: Cricetulus griseus;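 note: CHO cells stably coexpressing TLR9 and MyD88 fusions from primary screen; compound exposure lasted 48 hours before viability readout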
[19] = ATP-based viability loss in A549 cells – cell-based, CellTiter-Glo luminescence, dry powder samples, cytotoxicity control, dose response (AID 720585); assay type: functional
[20] = viability loss in HepG2 hepatoma cells – cell-based, cherry-picks, set 5, cytotoxicity control, dose response (AID 1053118); assay type: functional
[21] = blockers of FN fibrillogenesis by fibroblasts – AH1F cells, Alexa488-FN fluorescence, cherry-picks, dose response (AID 1035475); assay type: functional, cell-based
[22] = viability loss in HEK293 kidney cells – cell-based, cherry-picks, set 5, cytotoxicity control, dose response (AID 1053117); assay type: functional
[23] = molecular target: Metabotropic glutamate receptor 5 (Rattus norvegicus, UniProt P31424); assay: Identification of a glycine sulfonamide based non-MPEP site positive allosteric potentiator (PAM) of mGlu5 (calcium_assay).; assay type: functional
[24] = kidney cell line viability loss – HEK293T, luminescence plate reader, powder samples, set 4, cytotoxicity control, dose response (AID 651863); assay type: functional, cell-based; conditions: HEK293
[25] = HepG2 hepatoma cell viability loss – plate reader, dry powder, cytotoxicity control, dose response (AID 651947); assay type: functional, cell-based
[26] = inhibitors of non-replicating M. tuberculosis, dose response, luciferase, dry powder (AID 651620); assay type: functional; conditions: Mycobacterium tuberculosis
[27] = inhibitors of non-replicating M. tuberculosis, dose response, luciferase, dry powder (AID 651619); assay type: functional; conditions: Mycobacterium tuberculosis
[28] = growth inhibition of replicating M. tuberculosis, dose response, counter-screen, dry powder, IC90 (AID 651617); assay type: functional; conditions: Mycobacterium tuberculosis
[29] = viability loss in HEK293T cells – cell-based, CellTiter-Glo luminescence, dry powder, set 6, cytotoxicity control, dose response (AID 651949); assay type: functional; conditions: HEK293
[30] = molecular target: Delta-type opioid receptor (Homo sapiens, UniProt P41143); assay: Late-stage results from the probe development effort to identify antagonists of OPRK1: fluorescence-based cell-based dose response OPRD1 counterscreen.; assay type: functional
Mu-type opioid receptor = Mu-type opioid receptor (Homo sapiens, UniProt P35372); assay: Late-stage results from the probe development effort to identify antagonists of OPRK1: luminescence-based cell-based dose response OPRM1 counterscreen.; assay type: functional
[31] = Late stage assay provider results from the probe development effort to identify selective inhibitors of heat shock protein 90 (HSP90): Absorbance-based cell proliferation assay in SKBR3 cells.; assay type: functional; conditions: SK-BR-3
[32] = Late stage assay provider results from the probe development effort to identify selective inhibitors of heat shock protein 90 (HSP90): Absorbance-based cell proliferation assay in MCF7 cells.; assay type: functional
[33] = A Cell-Based Confirmatory Screen for Compounds that Inhibit VEEV, TC-83 (8).; assay type: functional
[34] = viability loss in A549 lung cells – cell-based, 24 h, CellTiter-Glo luminescence, cherry-picks, cytotoxicity control, dose response (AID 1053115); assay type: functional; conditions: A549, 24 h

T1 sequence (P78536 whole entry, the tested form may be a part): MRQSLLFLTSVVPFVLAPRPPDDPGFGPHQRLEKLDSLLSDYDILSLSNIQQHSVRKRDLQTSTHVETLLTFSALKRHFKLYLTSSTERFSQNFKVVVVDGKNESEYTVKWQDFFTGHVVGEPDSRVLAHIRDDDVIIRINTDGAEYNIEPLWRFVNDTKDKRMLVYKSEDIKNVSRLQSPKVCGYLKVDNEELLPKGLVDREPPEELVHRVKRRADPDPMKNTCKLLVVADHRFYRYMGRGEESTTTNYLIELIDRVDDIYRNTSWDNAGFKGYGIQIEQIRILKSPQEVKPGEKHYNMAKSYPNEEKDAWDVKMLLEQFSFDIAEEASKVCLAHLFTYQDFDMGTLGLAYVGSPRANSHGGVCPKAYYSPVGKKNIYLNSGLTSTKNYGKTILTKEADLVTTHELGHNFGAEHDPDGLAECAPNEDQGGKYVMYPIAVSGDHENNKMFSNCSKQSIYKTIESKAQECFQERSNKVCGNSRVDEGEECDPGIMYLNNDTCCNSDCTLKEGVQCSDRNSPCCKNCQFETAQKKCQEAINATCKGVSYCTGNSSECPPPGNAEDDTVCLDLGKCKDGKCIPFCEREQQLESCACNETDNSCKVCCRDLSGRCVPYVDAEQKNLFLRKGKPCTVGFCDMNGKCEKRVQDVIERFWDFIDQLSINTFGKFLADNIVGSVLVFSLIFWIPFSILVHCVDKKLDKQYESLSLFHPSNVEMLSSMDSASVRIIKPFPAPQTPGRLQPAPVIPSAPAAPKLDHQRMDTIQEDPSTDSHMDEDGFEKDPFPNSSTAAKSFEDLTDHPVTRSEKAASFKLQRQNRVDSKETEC
Chain of NAD-dependent protein deacylase sirtuin-5, mitochondrial (Q9NXA8 whole entry): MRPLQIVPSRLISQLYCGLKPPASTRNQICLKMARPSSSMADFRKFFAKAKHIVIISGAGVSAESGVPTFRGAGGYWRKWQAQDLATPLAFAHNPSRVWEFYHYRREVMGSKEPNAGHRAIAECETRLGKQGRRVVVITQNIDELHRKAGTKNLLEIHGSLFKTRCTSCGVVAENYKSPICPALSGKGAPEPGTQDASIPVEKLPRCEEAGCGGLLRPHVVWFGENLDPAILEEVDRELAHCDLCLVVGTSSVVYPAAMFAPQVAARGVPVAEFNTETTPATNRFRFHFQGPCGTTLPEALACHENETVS
Chain of fMet-Leu-Phe receptor (P21462 whole entry): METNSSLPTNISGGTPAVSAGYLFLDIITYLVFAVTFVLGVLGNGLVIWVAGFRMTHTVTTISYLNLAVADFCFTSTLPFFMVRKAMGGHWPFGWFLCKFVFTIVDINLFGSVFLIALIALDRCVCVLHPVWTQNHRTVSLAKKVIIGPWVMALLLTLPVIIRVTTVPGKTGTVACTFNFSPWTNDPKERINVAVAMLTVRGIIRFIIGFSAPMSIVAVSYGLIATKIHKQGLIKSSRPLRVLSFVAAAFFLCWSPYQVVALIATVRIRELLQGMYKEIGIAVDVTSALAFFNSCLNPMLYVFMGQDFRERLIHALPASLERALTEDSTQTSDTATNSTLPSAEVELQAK
Chain of E3 ubiquitin-protein ligase UHRF1 (Q96T88 whole entry, the tested form may be a part): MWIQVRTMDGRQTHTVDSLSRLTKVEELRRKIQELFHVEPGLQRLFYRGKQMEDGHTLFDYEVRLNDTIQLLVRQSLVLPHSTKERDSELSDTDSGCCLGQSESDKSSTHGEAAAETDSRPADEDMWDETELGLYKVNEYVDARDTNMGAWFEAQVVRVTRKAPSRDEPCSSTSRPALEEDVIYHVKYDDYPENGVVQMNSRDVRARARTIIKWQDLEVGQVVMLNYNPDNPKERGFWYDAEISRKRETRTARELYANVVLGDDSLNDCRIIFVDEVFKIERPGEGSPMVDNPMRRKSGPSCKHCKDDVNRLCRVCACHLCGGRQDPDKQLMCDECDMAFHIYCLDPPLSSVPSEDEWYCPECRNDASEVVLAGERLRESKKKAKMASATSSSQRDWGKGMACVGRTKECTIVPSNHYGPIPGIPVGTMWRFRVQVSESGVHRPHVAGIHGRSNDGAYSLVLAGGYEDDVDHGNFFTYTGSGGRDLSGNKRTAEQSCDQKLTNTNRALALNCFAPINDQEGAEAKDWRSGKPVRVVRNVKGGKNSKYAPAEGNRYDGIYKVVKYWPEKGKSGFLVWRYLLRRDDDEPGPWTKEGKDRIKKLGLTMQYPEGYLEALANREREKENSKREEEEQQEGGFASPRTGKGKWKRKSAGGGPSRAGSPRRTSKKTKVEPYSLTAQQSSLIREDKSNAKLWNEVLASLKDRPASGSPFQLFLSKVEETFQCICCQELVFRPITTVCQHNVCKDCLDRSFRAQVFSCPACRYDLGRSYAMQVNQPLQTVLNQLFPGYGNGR
Chain of Beta Lactamase (Q932Y6 whole entry): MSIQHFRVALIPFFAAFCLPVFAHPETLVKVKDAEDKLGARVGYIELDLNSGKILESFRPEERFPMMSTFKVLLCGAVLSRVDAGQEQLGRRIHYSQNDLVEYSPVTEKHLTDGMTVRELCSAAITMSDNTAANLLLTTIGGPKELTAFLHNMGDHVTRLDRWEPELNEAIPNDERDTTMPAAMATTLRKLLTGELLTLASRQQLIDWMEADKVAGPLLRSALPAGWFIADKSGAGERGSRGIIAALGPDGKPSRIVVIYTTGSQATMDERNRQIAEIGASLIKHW
Chain of Metabotropic glutamate receptor 5 (P31424 whole entry): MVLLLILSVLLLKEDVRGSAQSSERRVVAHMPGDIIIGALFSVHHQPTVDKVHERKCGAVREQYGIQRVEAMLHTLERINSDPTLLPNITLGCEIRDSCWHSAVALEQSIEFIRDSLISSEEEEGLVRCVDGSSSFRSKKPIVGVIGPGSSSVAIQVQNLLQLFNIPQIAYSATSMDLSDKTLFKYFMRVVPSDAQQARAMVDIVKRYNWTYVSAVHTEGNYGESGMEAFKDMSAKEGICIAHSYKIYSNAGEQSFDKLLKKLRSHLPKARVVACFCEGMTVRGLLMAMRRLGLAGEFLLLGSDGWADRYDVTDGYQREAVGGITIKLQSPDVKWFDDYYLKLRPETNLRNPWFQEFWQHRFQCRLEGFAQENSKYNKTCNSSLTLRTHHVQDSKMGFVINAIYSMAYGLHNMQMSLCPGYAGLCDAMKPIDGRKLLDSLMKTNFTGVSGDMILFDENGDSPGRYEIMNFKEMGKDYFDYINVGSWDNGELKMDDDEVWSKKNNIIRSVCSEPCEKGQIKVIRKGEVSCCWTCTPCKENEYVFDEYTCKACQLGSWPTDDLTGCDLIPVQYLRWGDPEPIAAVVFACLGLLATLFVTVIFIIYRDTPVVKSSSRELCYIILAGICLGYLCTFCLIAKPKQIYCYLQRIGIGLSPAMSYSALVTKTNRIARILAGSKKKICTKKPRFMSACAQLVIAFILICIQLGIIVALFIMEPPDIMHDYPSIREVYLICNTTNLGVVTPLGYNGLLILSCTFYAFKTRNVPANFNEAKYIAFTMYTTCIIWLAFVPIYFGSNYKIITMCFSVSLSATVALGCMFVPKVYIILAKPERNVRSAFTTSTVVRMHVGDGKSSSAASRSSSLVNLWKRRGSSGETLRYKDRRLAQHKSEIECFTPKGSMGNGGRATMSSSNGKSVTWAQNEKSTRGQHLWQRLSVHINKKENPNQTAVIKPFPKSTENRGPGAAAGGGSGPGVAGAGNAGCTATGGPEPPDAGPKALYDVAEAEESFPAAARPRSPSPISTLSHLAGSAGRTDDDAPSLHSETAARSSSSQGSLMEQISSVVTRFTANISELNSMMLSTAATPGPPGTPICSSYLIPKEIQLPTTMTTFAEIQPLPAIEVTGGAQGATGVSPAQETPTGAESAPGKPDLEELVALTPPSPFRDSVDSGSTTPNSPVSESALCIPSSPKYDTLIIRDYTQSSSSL
Chain of Delta-type opioid receptor (P41143 whole entry): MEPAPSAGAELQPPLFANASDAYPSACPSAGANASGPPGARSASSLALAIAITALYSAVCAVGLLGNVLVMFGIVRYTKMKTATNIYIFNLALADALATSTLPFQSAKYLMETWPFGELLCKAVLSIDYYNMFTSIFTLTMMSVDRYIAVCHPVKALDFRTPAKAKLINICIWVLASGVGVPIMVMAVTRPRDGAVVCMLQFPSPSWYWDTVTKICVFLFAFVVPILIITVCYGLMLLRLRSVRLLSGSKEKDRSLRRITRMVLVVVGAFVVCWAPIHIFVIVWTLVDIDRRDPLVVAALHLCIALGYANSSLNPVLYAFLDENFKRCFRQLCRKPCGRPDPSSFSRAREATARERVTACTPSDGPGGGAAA
Chain of Mu-type opioid receptor (P35372 whole entry): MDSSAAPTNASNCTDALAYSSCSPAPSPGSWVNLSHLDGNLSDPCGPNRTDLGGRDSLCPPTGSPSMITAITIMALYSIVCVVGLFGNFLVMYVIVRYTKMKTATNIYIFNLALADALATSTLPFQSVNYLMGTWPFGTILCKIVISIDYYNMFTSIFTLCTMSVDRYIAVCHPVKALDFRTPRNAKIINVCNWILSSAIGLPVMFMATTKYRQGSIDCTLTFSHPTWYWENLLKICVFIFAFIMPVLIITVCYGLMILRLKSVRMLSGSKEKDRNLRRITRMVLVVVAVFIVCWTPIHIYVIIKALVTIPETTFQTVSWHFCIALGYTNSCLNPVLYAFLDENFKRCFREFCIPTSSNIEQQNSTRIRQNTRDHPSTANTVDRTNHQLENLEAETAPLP
Chain of Caspase-6 (P55212 24-179 limits assumed): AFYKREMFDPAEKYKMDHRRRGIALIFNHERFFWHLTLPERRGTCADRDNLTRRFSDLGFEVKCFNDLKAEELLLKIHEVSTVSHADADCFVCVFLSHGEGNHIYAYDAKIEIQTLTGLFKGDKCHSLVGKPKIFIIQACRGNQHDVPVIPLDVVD
Chain of Caspase-6 (P55212 194-293 limits assumed): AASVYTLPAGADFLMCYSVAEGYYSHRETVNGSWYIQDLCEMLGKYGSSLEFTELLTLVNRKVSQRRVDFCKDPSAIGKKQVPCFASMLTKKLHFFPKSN

Nc1cc(S(=O)(=O)N2CCCCC2)ccc1Oc1ccc(Cl)cc1
IC50 [1]: > 69.5 µM (inactive)
IC50 [2]: 5.69 µM (not active)
IC50 [3]: > 69.5 µM (inactive)

OCCCNCc1cccc2ccccc12
IC50 [4]: > 43.9 µM (inactive)

O=C(Nc1sc2c(c1C(=O)O)CCC2)C(=O)N1CCOCC1
AC50 (Caspase-6): 30.7 µM (active)

CC(C)OCCCN1CC(=O)N2C(c3cccc([N+](=O)[O-])c3)c3[nH]c4ccccc4c3C[C@H]2C1=O (some centres undefined)
IC50 [5]: > 83.3 µM (inactive)
IC50 [6]: 2.17 µM (active)
IC50 [7]: 0.979 µM (active)
IC50 [8]: 73.1 µM (inactive)

COc1ccc(OC)c(NC(=O)C2CCN(C(=O)c3cccs3)CC2)c1
AC50 [9]: 26.6 µM (active)

COc1ccc(OC)c(-c2cc(C3CCN(c4cc(Cl)nc(N)n4)CC3)[nH]n2)c1
AC50 [10]: 18.1 µM (active)
AC50 [11]: 42.9 µM (active)
AC50 [12]: 16.7 µM (active)

Cc1cccc([C@@H]2[C@@H]3C(=O)N(Cc4ccccc4)C(=O)[C@@H]3[C@]3(Cc4ccccc4)C(=O)N(c4ccc(C(F)(F)F)cc4)C(=O)N23)c1
IC50 [13]: > 69.6 µM (inactive)
IC50 [14]: > 69.6 µM (inactive)

COc1ccc2c(=O)c(-c3cnn(-c4ccccc4)c3)c(C)oc2c1
Ki (fMet-Leu-Phe receptor): > 66.7 µM (inactive)

O=C1C=CC2(C=C1)O[C@H](Cc1ccccc1)[C@@H](Cc1ccccc1)O2
CC50 [15]: 0.88 µM (active)
IC50 (Beta Lactamase): 21.8 µM (inactive)
AC50 [16]: 1.05 µM (active)
IC50 [17]: 49.6 µM (active)
CC50 [18]: 46.5 µM (active)
IC50 (CHO): 0.57 µM (active)

Cc1ccc(/C=C(\CCCC(=O)O)c2nc3ccccc3s2)cc1[N+](=O)[O-]
AbsAC50_uM [19]: 140.77 µM

O=S(=O)(c1cccc(F)c1)N1CC[C@@H]2[C@@H](CO)Nc3ccc(-c4cccc(F)c4)cc3[C@@H]21
AC50 [20]: 27.3 µM (active)
AC50 [21]: 6.54 µM (active)
AC50 [22]: 22.6 µM (active)

CS(=O)(=O)N(CC(=O)Nc1ccc(F)cc1F)c1cc(C(F)(F)F)ccc1Cl
EC50 [23]: 2.41 µM

O=C(NC[C@@H]1c2ccccc2CCN1C(=O)[C@@H]1CCCC[C@@H]1C(=O)O)OCC1c2ccccc2-c2ccccc21
AC50 [24]: 46.3 µM (active)

Cc1ccccc1CSc1nnc(-c2ccccc2)o1
AC50 [25]: 0.308 µM (active)

c1ccc(-n2cc(CSc3nnc(C4CCC4)o3)nn2)cc1
IC90 [26]: 2 µM (active)
IC90 [27]: 2 µM (active)
IC90 [28]: 62 µM (active)
AC50 [29]: > 52 µM (inactive)

CC(C)OC(=O)c1cc(Br)cnc1N1CCC(NC2CCCCC2)CC1
IC50 [30]: 3 µM (active)
IC50 (Mu-type opioid receptor): 20 µM (inactive)

COc1c[nH]c(C(=O)Nc2cccc(C(C)=O)c2)cc1=O
IC50 [31]: > 100 µM (inactive)
IC50 [32]: > 100 µM (inactive)

CNCCN(C)Cc1nc2ccc(C#N)cc2c(=O)n1-c1ccccc1F
IC50 [33]: 3.69 µM (active)

OC[C@H]1Nc2ccc(-c3cccc(F)c3)cc2[C@H]2[C@@H]1CCN2Cc1ccc(F)cc1
AC50 [34]: 45.3 µM (active)
